“Also recorded” adds a separate entry of the source.
Legend:
[1] = Photodegradation on UVA, UVB or visible light exposure without photosensitizer (HPLC)
Method: (§1) UVA and UVB irradiation were carried out under the following conditions. Samples were exposed to UV light at a distance of 30 cm from either a 15 W UVA lamp, Sylvania 350 BL, (lambda max=365 nm, 820 μW/cm2) or 15 W UVB lamp, UVP (lambda max=302 nm, 820 μW/cm2); both purchased from UVP, Inc., USA. The lamps were mounted in a UVP Model XX-15 lamp holder rested on a XX exposure stand.
(§2) To give a solution depth of about 3 mm, 0.5 ml reaction volumes were used in clear 24-well plates. To prevent evaporation during the UVA exposure, samples were covered with MICROAMP™ Optical Adhesive Film (ABI) allowing greater than 80% transmission above 330 nm. […] reactions were covered with a quartz window. All reactions were performed at ambient temperature in 10 mM potassium phosphate pH 7.41 (measured at 10 mM and 21° C.), equilibrated to air, in the presence of 100 μM diethylenetriaminepentaacetic acid in order to prevent the effect of adventitious redox-active metal ions, pre-empt the Fenton reaction and avoid hydroxyl radical-induced damage.
(§3) 5-MTHF photodegradation was assayed by HPLC using the following procedure. Samples were taken during light exposure at various times and analyzed by HPLC on a Luna phenyl-hexyl 5 μm (25×0.46 cm) column (Phenomenex) eluted at a flow rate of 1.5 ml/min with ammonium phosphate (20 mM in ammonium), pH 2.8/acetonitrile (17:1) with detection by UV absorbance using Waters 996, photodiode array spectrometer.

[2] = Method: as §1, §2
(§4) Reactions with photoexcited pterin-6-carboxylic acid or folic acid were carried out as follows. Samples were exposed in 24-well plates to UVA light in 0.5 ml reaction volumes containing 5-MTHF and folic acid or PCA in the absence or presence of sodium ascorbate in 10 mM potassium phosphate buffer pH 7.42. […]

[3] = Rose Bengal photosensitization reaction, depletion of 5-MTHF (HPLC)
Method: Photochemical reactions with Rose Bengal were carried out as follows. Samples in septum-stoppered glass cuvettes were illuminated at a distance of 12 cm by light from a 40 W tungsten lamp passed through a Wratten #16 gelatin filter. Reactions were equilibrated with air or sparged with 100% or 1.8% O2 in argon, or extensively with 100% argon, and illumination was carried out at ambient temperature. Samples were taken through the septum by syringe and injected directly into the HPLC.
as §3

[4] = Reaction with photoexcited pterin-6-carboxylic acid under UVA, depletion of 5-MTHF (HPLC)
Method: as §1, §2, §4

[5] = tested on: Supercoiled plasmid DNA, PBR 322; assay: UVA-mediated strand breaks in plasmid DNA, agarose gel electrophoresis; conditions: for strand-breaks in supercoiled plasmid DNA on UVA exposure / effect on the plasmid in the dark: 50 μM; for strand-breaks in supercoiled plasmid DNA on UVA exposure: UVA for 80 min, FIG. 3; for effect on the plasmid in the dark: incubated 80 min in the dark
Method: as §1, §2
Strand breaks in DNA were detected as follows. Supercoiled plasmid DNA is converted into a nicked circular-form (relaxed) due to single-strand breaks, and subsequently into a linear form due to double-strands breaks. The three forms can be separated by agarose gel electrophoresis. Supercoiled DNA migrates further than the linear form, which in turn migrates further than the relaxed form.
A mixture of 0.1 μg of plasmid DNA, PBR 322, and folic acid, 5-MTHF or PCA in 10 mM potassium phosphate, pH 7.4, was incubated for 80 min under the above UVA-irradiation conditions for a total exposure of 4 J/cm^2. To partially maintain the concentration of 5-MTHF, a 0.25 mM solution was continuously added to the reaction mixture at 1.1 μl/min using a Harvard syringe pump with magnetic stirring.
A sample of 10 μl of the reaction mixture was then subjected to agarose gel electrophoresis after addition of 2 μl of 10× gel loading buffer. Agarose gel for electrophoresis was prepared by dissolving 0.9% agarose in 45 mM Tris-borate buffer (pH 8.3), containing 1 mM EDTA. Electrophoresis was run at 4 V/cm for 1 h. The gel was incubated with 1 μg/ml SYBR Safe stain, and the DNA bands were scanned using Fuji FLA-5000 phosphor-imaging system.

[6] = Rate of reaction with singlet oxygen in water; assay type: physicochemical; conditions: inferred from competition with azide
[7] = cited from earlier work
[8] = tested on: Rose Bengal-loaded THP-1 cells; conditions: viable Rose Bengal-loaded THP-1 cells; cited from earlier work

## CN1c2c(nc(N)[nH]c2=O)NC[C@@H]1CNc1ccc(C(=O)N[C@@H](CCC(=O)[O-])C(=O)O)cc1.CN1c2c(nc(N)[nH]c2=O)NC[C@@H]1CNc1ccc(C(=O)N[C@@H](CCC(=O)[O-])C(=O)O)cc1.[Ca+2] [5-MTHF, 5-Methyl-6S-tetrahydrofolic acid calcium salt]
[1]; UVA, UVB or visible light, no photosensitizer, calcium salt
  stability when illuminated alone: stable; also recorded: unaffected; also recorded: not photolyzed directly by UV
[1]; in 1 hr, same extent as in the absence of light
  degradation (autooxidation) on exposure to UVA or UVB: < 5%
[2]; UV exposure
  5-MTHF concentration that prevented photodegradation of folic acid: below 10 μM
[2]; photolysis of folic acid in the presence of 5-MTHF, FIG. 1
  folic acid maintained until 5-MTHF decayed below this concentration: below 1 μM
[3]; 25 μM 5-MTHF, pH 7.4, Rose Bengal, SOD, FIG. 2A
  depletion of 5-MTHF by visible-light sensitized Rose Bengal: depleted
[3]; competition reaction, high concentrations of O2, FIG. 2B
  effectiveness in scavenging singlet oxygen relative to azide: about 20 fold
[4]; initial 25 μM 5-MTHF, 50 μM PCA, UVA exposure
  time to complete depletion of 5-MTHF: ≤ 15 min
[5]; 50 μM folic acid or PCA, UVA 80 min, 5-MTHF added continuously, 10 μM falling to 0.25 μM, calcium salt
  UVA mediated DNA-damage in the presence of folic acid or PCA: inhibited
[5]; 5-MTHF alone, UV
  cleavage of plasmid DNA induced by the compound alone under UV: does not induce cleavage of plasmid DNA
[5]; in the presence of photoexcited PCA
  5-MTHF concentration that prevented strand-breaks in plasmid DNA: below 10 μM
[6]
  rate of reaction with singlet oxygen: nearly diffusion limited

## Nc1nc2ncc(CNc3ccc(C(=O)N[C@@H](CCC(=O)O)C(=O)O)cc3)nc2c(=O)[nH]1 [folic acid]
[1]; UVA, HPLC, similar results with UVB
  photolysis products on exposure to UVA: initially yields, p-aminobenzoylglutamate and 6-FP
[5]
  strand-breaks in supercoiled plasmid DNA on UVA exposure: high percentage of strand-breaks
  effect on the plasmid in the dark: no effect

## O=C1O[C@H]([C@@H](O)CO)C([O-])=C1O.[Na+] [ascorbate, sodium ascorbate]
[3]; mM levels of sodium ascorbate, high oxygen, FIG. 2C
  rate of loss of 5-MTHF in Rose-Bengal induced photosensitization: decreased
[4]; 1 mM ascorbate, 25 μM 5-MTHF, 10 μM PCA, UVA
  maintenance of 5-MTHF throughout the reaction: substantially maintained
[7]
  rate constant for the reaction with singlet oxygen in water: 8.3e+06 M⁻¹ s⁻¹
[8]
  effect on the generation of protein-derived peroxides: no effect

## Nc1nc2ncc(C(=O)O)nc2c(=O)[nH]1 [PCA, pterin-6 carboxylic acid]
[5]
  strand-breaks in supercoiled plasmid DNA on UVA exposure: high percentage of strand-breaks
  effect on the plasmid in the dark: no effect

## [N-]=[N+]=[N-].[Na+] [azide, Sodium azide]
[3]; 0.5 mM azide, 100% O2, 10 μM Rose Bengal, FIG. 2B
  decrease of the depletion rate of 5-MTHF: about 50%
[3]; 5 mM azide, 100% O2, 10 μM Rose Bengal, FIG. 2B
  decrease of the initial rate of depletion of 5-MTHF: about 80%
[5]; 10 mM sodium azide, same conditions
  protection against UVA mediated DNA-damage: full protection
[7]
  rate constant for the reaction with singlet oxygen in water: 4.5e+08 M⁻¹ s⁻¹

— patent US20090170858A1, “Methods and Compositions Containing Natural Folates for Protecting Against Radiation Damage” (priority 2005, published 2009)
